The numbers were not newly measured in US9999632B2, “Inhibition of pancreatic lipase” (RD Biomed Limited, priority 2009, dated 2018), which cites them from elsewhere.

The conditions of this series: patients treated with Orlistat; cited from earlier work.

Consider `CCCCCCCCCCC[C@@H](C[C@@H]1OC(=O)[C@H]1CCCCCC)OC(=O)[C@H](CC(C)C)NC=O` [Orlistat, tetrahydrolipstatin], for which the “patients affected by adverse effects (steatorrhoea, bloating, oily spotting, faecal urgency, faecal incontinence)” value was “up to 40 % of patients”.
